In US4939137A, “Ring-fused thienopyrimidinedione derivatives” (Ortho Pharmaceutical Corporation, priority 1989, dated 1990):

Experiments:
5HT1A receptor = target: T1, 5HT1A receptor (Rattus norvegicus, UniProt P19327); assay: Brain Serotonin 5HT1A Radioreceptor Assay (3H-80H-DPAT); type: binding; settings: for IC50: rat frontal cortex membranes, 10 minutes, 37° C., read-out: RECEPTOR BINDING 5HT-1A (IC50); for inhibition at 1 µM: @ 10^-6, rat frontal cortex membranes, read-out: RECEPTOR BINDING 5HT-1A, % @ 10^-6
T1 construct: Membrane fragments were prepared from the frontal cortex dissected from brains obtained from female rats; from tissue; host or cells: frontal cortex, female rats
T1 sequence (P19327 1-422): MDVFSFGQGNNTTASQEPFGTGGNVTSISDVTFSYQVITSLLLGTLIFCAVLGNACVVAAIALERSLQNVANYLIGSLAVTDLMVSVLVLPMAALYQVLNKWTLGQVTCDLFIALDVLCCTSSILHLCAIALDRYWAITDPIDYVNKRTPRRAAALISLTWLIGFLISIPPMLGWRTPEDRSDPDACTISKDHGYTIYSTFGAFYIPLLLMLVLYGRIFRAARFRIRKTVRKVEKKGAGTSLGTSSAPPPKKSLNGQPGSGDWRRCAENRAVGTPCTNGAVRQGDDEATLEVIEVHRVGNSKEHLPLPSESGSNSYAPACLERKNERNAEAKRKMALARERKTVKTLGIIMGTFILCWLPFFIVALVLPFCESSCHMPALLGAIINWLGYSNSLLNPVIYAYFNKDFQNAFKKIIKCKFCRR
Procedure: Membrane fragments were prepared from the frontal cortex dissected from brains obtained from female rats (~150 g). The 5HT1A sites were labeled with ^3 H-80H-dipropylaminotetralin (^3 H-80H-DPAT). Membrane fragments, ^3 H-80H-DPAT and an unlabeled test compound were incubated for 10 minutes at 37° C. The tubes were then placed in an ice bath for an additional 10 minutes. Compound bound to the receptor site was separated from the remaining unbound compound by vacuum filtration.
The ability of a nonlabeled compound to compete with ^3 H-80H-DPAT for binding sites was a measure of the compound's affinity for the 5HT1A receptor. Specific binding was determined by the difference between total counts bound and counts bound in the presence of 10^-5 M serotonin.
Data are presented at the IC50, the concentration of nonlabeled compound required to displace 50% of the ^3 H-80H-DPAT specifically bound to 5HT1A binding sites.

5HT2 receptor = target: T2, 5HT2 receptor (Rattus norvegicus, UniProt P14842); assay: Brain Serotonin 5HT2 Radioreceptor Assay (3H-ketanserin); type: binding; settings: for IC50: rat frontal cortex membranes, 15 minutes, 37° C., read-out: RECEPTOR BINDING 5HT-2 (IC50); for inhibition at 1 µM: 0.25 h, @ 10^-6, rat frontal cortex membranes, read-out: RECEPTOR BINDING 5HT-2, % @ 10^-6
T2 construct: Membrane fragments were prepared from the frontal cortex dissected from brains obtained from female rats; from tissue; host or cells: frontal cortex, female rats
T2 sequence (P14842 whole entry, the tested form may be a part): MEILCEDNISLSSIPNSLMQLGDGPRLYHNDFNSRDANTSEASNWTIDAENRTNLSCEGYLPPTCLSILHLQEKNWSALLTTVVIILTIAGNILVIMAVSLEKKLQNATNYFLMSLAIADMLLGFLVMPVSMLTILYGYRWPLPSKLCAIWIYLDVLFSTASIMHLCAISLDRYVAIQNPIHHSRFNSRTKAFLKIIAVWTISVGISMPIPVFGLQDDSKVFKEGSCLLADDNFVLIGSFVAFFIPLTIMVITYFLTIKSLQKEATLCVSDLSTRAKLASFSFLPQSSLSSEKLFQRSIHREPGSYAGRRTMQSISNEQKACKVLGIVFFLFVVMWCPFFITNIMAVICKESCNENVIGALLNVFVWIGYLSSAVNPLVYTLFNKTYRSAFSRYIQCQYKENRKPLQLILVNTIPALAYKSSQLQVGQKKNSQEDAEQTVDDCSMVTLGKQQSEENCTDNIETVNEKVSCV
Procedure: Membrane fragments were prepared from the frontal cortex dissected from brains obtained from female rats (~150 g). The 5HT2 sites were labeled with ^3 H-ketanserin. Membrane fragments, ^3 H-ketanserin and an unlabeled test compound were incubated for 15 minutes at 37° C. Compound bound to the receptor site was separated from the remaining unbound compound by vacuum filtration.
The ability of a nonlabeled compound to compete with ^3 H-ketanserin for binding sites was a measure of the compound's affinity for the 5HT2 receptor. Specific binding was determined by the difference between total counts bound and counts bound in the presence of 10^-6 M methysergide.
Data are presented as the IC50, the concentration of nonlabeled compound required to displace 50% of the ^3 H-ketanserin specifically bound to 5HT2 binding sites.

[1] = target: alpha-1 adrenergic receptor; assay: Brain Alpha-1 Radioreceptor Assay (3H-prazosin); settings: guinea pig brain membranes, 30 minutes, 30° C., read-out: RECEPTOR BINDING ALPHA-1 (IC50)
Procedure: Membrane fragments were prepared from the brains of mature female guinea pigs after removal of the corpus striata. The alpha-1 adrenergic receptor sites were labeled with ^3 H-prazosin. Membrane fragments, ^3 H-prazosin and an unlabeled test compound were incubated for 30 minutes at 30° C. Compound bound to the receptor site was separated from the remaining unbound radioligand by vacuum filtration. Specific binding was determined by the difference between total counts bound and counts bound in the presence of 10-^5 M phentolamine.

IC50 (5HT1A receptor) | IC50 (5HT2 receptor) | IC50 [1] | inhibition at 10 µM (5HT1A receptor; @ 10^-5, rat frontal cortex membranes, read-out: RECEPTOR BINDING 5HT-1A, % @ 10^-5) | SMILES | inhibition at 1 µM (5HT1A receptor) | inhibition at 1 µM (5HT2 receptor)
200 nM | 130 nM | – | – | CON=C1CCn2c(=O)n(CCCCCN3CCN(c4cccc(C(F)(F)F)c4)CC3)c(=O)c3csc1c32 [Example 44, 4-[5-[4-(3-Trifluoromethylphenyl)piperazin-1-yl]-pentyl]-3,4,5,7,8,9-hexahydro-9-methoxyiminothieno[4,3,2-de]pyrido[1,2-c]pyrimidine-3,5-dione] | – | –
– | 180 nM | 22000 nM | – | O=C1CCn2c(=O)n(CCN3CCC(=C(c4ccc(F)cc4)c4ccc(F)cc4)CC3)c(=O)c3csc1c32 [Example 20, 4-[2-[4-[Bis(4-fluorophenyl)methylene]piperidin-1-yl]ethyl]-3,4,5,7,8,9-hexahydrothieno[4,3,2-de]pyrimidine-3,5,9-trione] | 47% | –
45 nM | 1500 nM | – | – | COc1ccccc1N1CCN(CCCCCn2c(=O)c3csc4c3n(c2=O)CCC4=O)CC1 [Example 12, 3,4,5,7,8,9-Hexahydro-4-[5-[4-(2-methoxyphenyl)piperazin-1-yl]pentyl]thieno[4,3,2-de]pyrido[1,2-c]pyrimidine-3,5,9-trione] | – | –
20 nM | 150 nM | < 1 nM | – | CON=C1CCn2c(=O)n(CCN3CCN(c4ccccc4OC)CC3)c(=O)c3c(C)sc1c32 [Example 28, 3,4,5,7,8,9-Hexahydro-9-methoxyimino-4-[2-[4-(2-methoxyphenyl)piperazin-1-yl]ethyl]-2-methyl-thieno[4,3,2-de]pyrido[1,2-c]pyrimidine-3,5-dione] | – | –
160 nM | 2000 nM | 35 nM | – | COc1ccccc1N1CCN(CCn2c(=O)c3csc4c3n(c2=O)CCCCC4=O)CC1 [Example 16, 4,7,8,9,10,11-Hexahydro-4-[2-[4-(2-methoxyphenyl)piperazin-1-yl]ethyl]thieno[4,3,2-de]pyrimido[3,4-a]azocine-3,5,11-trione] | – | –
– | 2500 nM | 3 nM | 45% | COc1ccccc1N1CCN(CCn2c(=O)c3csc4c3n(c2=O)CCC4NC(=O)c2ccccc2)CC1 (stereo not shown) [Example 40, 9-Benzoylamino-3,4,5,7,8,9-hexahydro-4-[2-[4-(2-methoxyphenyl)piperazin-1-yl]ethyl]thieno[4,3,2-de]pyrido[1,2-c]pyrimidine-3,5-dione] | – | –
400 nM | 630 nM | 540 nM | – | O=C1CCn2c(=O)n(CCCCN3CCC(C(=O)c4ccc(F)cc4)CC3)c(=O)c3csc1c32 [Example 42, 4-[4-[4-(4-Fluorobenzoyl)piperidin-1-yl]butyl]-3,4,5,7,8,9-hexahydrothieno[4,3,2-de]pyrido[1,2-c]pyrimidine-3,5,9-trione] | – | –
5 nM | 300 nM | 21 nM | – | COc1ccccc1N1CCN(CCCn2c(=O)c3csc4c3n(c2=O)CCC4=O)CC1 [Example 10, 3,4,5,7,8,9-Hexahydro-4-[3-[4-(2-methoxyphenyl)piperazin-1-yl]propyl]thieno[4,3,2-de]pyrido[1,2-c]pyrimidine-3,5,9-trione] | – | –
52 nM | 430 nM | – | – | O=C1CCn2c(=O)n(CCCCCN3CCN(c4cccc(C(F)(F)F)c4)CC3)c(=O)c3csc1c32 [Example 43] | – | –
62 nM | 270 nM | 0.4 nM | – | COc1ccccc1N1CCN(CCn2c(=O)c3csc4c3n(c2=O)CCCC4O)CC1 (stereo not shown) [Example 22, 10-Hydroxy-4,7,8,9-tetrahydro-4-[2-[4-(2-methoxyphenyl)piperazin-1-yl]ethyl]thieno[4,3,2-de]pyrimido[3,4-a]azepine-3,5-dione] | – | –
1000 nM | 1000 nM | 40000 nM | – | CON=C1CCn2c(=O)n(CCN3CCN(c4cccc(Cl)c4)CC3)c(=O)c3csc1c32 [Example 41, 4-[2-[4-(3-Chlorophenyl)piperazin-1-yl]ethyl]-3,4,5,7,8,9-hexahydro-9-methoxyiminothieno[4,3,2-de]pyrido[1,2-c]pyrimidine-3,5-dione] | – | –
580 nM | 750 nM | 0.35 nM | – | COc1ccccc1N1CCN(CCn2c(=O)c3csc4c3n(c2=O)CCC4NC(C)=O)CC1 (stereo not shown) [Example 39, 9-Acetylamino-3,4,5,7,8,9-hexahydro-4-[2-[4-(2-methoxyphenyl)piperazin-1-yl]ethyl]thieno[4,3,2-de]pyrido[1,2-c]pyrimidine-3,5-dione] | – | –

The next lines start with the molecule.

SMILES | IC50 (5HT1A receptor) | IC50 (5HT2 receptor) | IC50 [1] | inhibition at 10 µM (5HT1A receptor; @ 10^-5, rat frontal cortex membranes, read-out: RECEPTOR BINDING 5HT-1A, % @ 10^-5) | inhibition at 1 µM (5HT1A receptor) | inhibition at 1 µM (5HT2 receptor)
O=C1CCn2c(=O)n(CCN3CC=C(c4ccccc4)CC3)c(=O)c3csc1c32 [Example 17, 3,4,5,7,8,9-Hexahydro-4-[2-(4-phenyl-1,2,3,6-tetrahydropyridin-1-yl)ethyl]thieno[4,3,2-de]pyrido[1,2-c]pyrimidine-3,5,9-trione] | – | – | 7.6 nM | – | 1.8% | 21%
O=C1CCn2c(=O)n(CCN3CCC(C(=O)c4ccc(F)cc4)CC3)c(=O)c3csc1c32 [Example 19, 4-[2-[4-(4-Fluorobenzoyl)piperidin-1-yl]ethyl]-3,4,5,7,8,9-hexahydrothieno[4,3,2-de]pyrido[1,2-c]pyrimidine-3,5,9-trione] | – | 1 nM | 1000 nM | – | 35% | –
O=C1CCn2c(=O)n(CCCCN3CCN(c4cccc(C(F)(F)F)c4)CC3)c(=O)c3csc1c32 [Example 18, 4-[4-[4-(3-Trifluoromethylphenyl)piperazin-1-yl]butyl]-3,4,5,7,8,9-hexahydrothieno[4,3,2-de]-pyrido[1,2-c]pyrimidine-3,5,9-trione] | – | – | 4500 nM | – | – | 47%
O=C1CCn2c(=O)n(CCN3CCN(c4cccc(C(F)(F)F)c4)CC3)c(=O)c3csc1c32 [Example 6, 4-[2-[4-(3-Trifluoromethylphenyl)piperazin-1-yl]ethyl]-3,4,5,7,8,9-hexahydrothieno[4,3,2-de]-pyrido[1,2-c]pyrimidine-3,5,9-trione] | 28 nM | 700 nM | 1000 nM | – | – | –
O=C1CCn2c(=O)n(CCN3CCN(c4cccc(Cl)c4)CC3)c(=O)c3csc1c32 [Example 7, 4-[2-[4-(3-Chlorophenyl)piperazin-1-yl]ethyl]-3,4,5,7,8,9-hexahydrothieno[4,3,2-de]pyrido[1,2-c]pyrimidine-3,5,9-trione] | 5 nM | 350 nM | 180 nM | – | – | –
COc1ccccc1N1CCN(CCCCn2c(=O)c3csc4c3n(c2=O)CCC4=O)CC1 [Example 11, 3,4,5,7,8,9-Hexahydro-4-[4-[4-(2-methoxyphenyl)-piperazin-1-yl]butyl]thieno[4,3,2-de]pyrido[1,2-c]pyrimidine-3,5,9-trione] | 0.9 nM | – | 0.5 nM | – | – | 33%
O=C1CCn2c(=O)n(CCCCCN3CCC(=C(c4ccc(F)cc4)c4ccc(F)cc4)CC3)c(=O)c3csc1c32 [Example 45, 4-[5-[4-[Bis(4-fluorophenyl)methylene]piperadin-1-yl]pentyl]-3,4,5,7,8,9-hexahydrothieno[4,3,2-de]pyrimidine-3,5,9-trione Monooxalate] | 240 nM | 55 nM | – | – | – | –
CON=C1CCn2c(=O)n(CCCN3CCN(c4ccccc4OC)CC3)c(=O)c3csc1c32 [Example 29, 3,4,5,7,8,9-Hexahydro-9-methoxyimino-4-[3-[4-(2-methoxyphenyl)piperazin-1-yl]propyl]thieno-[4,3,2-de]pyrido[1,2-c]pyrimidine-3,5-dione] | – | – | 26 nM | – | 5.2% | 34.3%
